Measured values reported in publication PMC11570497 (Nature Plants, 2024).
Entries after “also recorded” stand apart in the source; their conditions may differ. Each block holds one compound with its values, some of them ahead of it. Where no end group is shown, it is not given here. The star is where a group is joined. Dabcyl = CN(C)c1ccc(N=Nc2ccc(C(=O)*)cc2)cc1; EDANS = O=S(=O)(O)c1cccc2c(NCCN*)cccc12

What was measured:
[1] = tested on: leaf discs of N. benthamiana; type: cell-based, Nicotiana benthamiana; conditions: n = 6
[2] = n = 8
[3] = tested on: P69B–His; assay: purified P69B–His; conditions: tomato, 21 °C, up to 20 min
[4] = AF of sbt5.2 mutant plants; conditions: Nicotiana benthamiana, 21 °C, up to 20 min
[5] = tested on: SBT5.2a–His; type: biochemical, Nicotiana benthamiana; conditions: different concentrations of SBT5.2a–His; 100 nM csp22; 45 minutes; read-out ROS burst on six-week-old leaf discs; n = 6
Protocol: Four-week-old N. benthamiana leaves were infiltrated with a 1:1 mixture (final OD600 = 0.5 for each) of A. tumefaciens GV3101 containing the silencing suppressor P19 and pPB097 or pJP008. AF containing SBT5.2a–His or P69B–His was extracted six days after infiltration and purified as previously described[44],[45].
The ROS burst assay was performed as previously described[43] except that L-012 (Wako Chemical) was used instead of luminol and the diameter of leaf discs used here was 4 mm rather than 6 mm. Briefly, after incubation in water overnight, one leaf disc (4 mm in diameter) was added to 100 µl of solution containing 25 ng µl^−1 L-012, 25 ng µl^−1 HRP and specified elicitor treatments. […] After incubation, 25 ng µl^−1 L-012 and 25 ng µl^−1 HRP were added to the AFs. Chemiluminescence was measured immediately with an Infinite M200 plate reader (Tecan) every minute for one hour.

[6] = AF from WT N. benthamiana; conditions: Nicotiana benthamiana, room temperature, up to 60 min

Compound: O=S(=O)(F)Cc1ccccc1 [PMSF]
- block of CspD perception (ROS burst) by subtilase inhibitor [1]: unable to block CspD perception

Compound: DTGTVKWFNTSKGFGFISRDSG [csp22 PSPTO3984]
- speed of inactivation/degradation in AF of WT plants [2]: more quickly degraded than that of CspD

- not cleaved [3]: not cleaved by purified P69B–His
Compound: Dabcyl-VKWFNNAK-{EDANS}
- not cleaved [4]: no longer cleaved in AF of sbt5.2 mutants

Compound: LNGKVKWFNNAKGYGFILEDGK [csp22]
- inactivation of csp22 elicitor activity by purified SBT5.2a–His [5]: dose-dependent inactivation

Compound: MLNGKVKWFNNAKGYGFILEDGKPDEDLFAHYSAIQMDGYKTLKAGQPVRFEIIQGPKGLHAVNIQSSLAKIGEPVKSAHAHTPEHAHA
- cleaved bond [6]: F-N, first_seen, 15 min; also recorded: L-K, first_seen, 15 min

Compound: QTGTVKWFNDEKGFGFITPQSG [csp22 PSPTO4145]
- speed of inactivation/degradation in AF of WT plants [2]: slower than that of CspD
